Experimental data as given in US11834453B2, “Substituted pyrimido[5,4-d]pyrimidines as HER2 inhibitors” (Array BioPharma Inc., priority 2020, dated 2023).

Experiments:
[1] = biological target: ErbB2 insYVMA (HER2-YVMA, SEQ ID NO: 2) (Homo sapiens, UniProt P04626, INS775YVMA/P1170A); experiment: biochemical; settings: ErbB2 insYVMA enzyme assay; read-out: Assay 1 IC50
ErbB2 WT = ErbB2 WT (Homo sapiens (Human), UniProt P04626); experiment: ErbB enzyme assay (CisBio HTRF KinEASE-TK), Assay 2; assay type: biochemical
How it was run: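 ErbB2 phosphorylates 250 nM biotin-TK substrate at 1 mM ATP in 25 mM HEPES pH 7.4, 10 mM MgCl2, 0.01% Triton X-100 and 2% DMSO, for 30 min at 22 °C. Product is detected by HTRF with Sa-XL665 and TK-Ab-Cryptate. Percent of control is set by DMSO-only wells and pre-quenched wells.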

EGFR = EGFR (Homo sapiens (Human), UniProt P00533); experiment: ErbB enzyme assay (CisBio HTRF KinEASE-TK), Assay 3; assay type: biochemical
How it was run: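 Inhibition is measured as reduced peptide phosphorylation by HTRF KinEASE-TK at 1 mM ATP and 250 nM substrate, 30 min at 22 °C. Values are IC50s from a 4-parameter logistic fit.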

[2] = biological target: ErbB2 with Exon 20 YVMA insertion (HER2-YVMA) (Homo sapiens (Human), UniProt P04626, INS775YVMA); experiment: Cellular phosphorylation assay, constitutive ErbB2 phosphorylation (Y1196) in engineered NIH 3T3 cells, Assay 4; assay type: cell-based
How it was run: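 Engineered NIH 3T3 cells expressing HER2-YVMA treated with compounds 1 h at 37 °C, then formaldehyde-fixed and methanol-permeabilized. pErbB2 Y1196 detected by in-cell infrared immunofluorescence, normalized to GAPDH. IC50 from the normalized curves.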

EGFR wild type (EGFR WT) = EGFR wild type (EGFR WT) (Homo sapiens (Human), UniProt P00533); experiment: Cellular phosphorylation assay, EGF-stimulated EGFR phosphorylation in engineered NIH 3T3 cells, Phospho-EGFR DuoSet IC ELISA, Assay 5; assay type: cell-based
How it was run: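 NIH 3T3 cells expressing EGFR WT (20,000/well, attached overnight) were exposed to serially diluted compound for 1 h at 37 °C, then stimulated with 100 ng/ml rEGF for 10 min. Phospho-EGFR in lysates measured by sandwich ELISA optical density; IC50 from curves.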

MDR1 (P-gp) = MDR1 (P-gp) (Homo sapiens (Human), UniProt P08183); experiment: MDR1 transfected MDCKII canine Mdr1 knockout permeability/efflux, Assay 7; settings: for efflux ratio at 2 h, 1 μM: dog, MDCK-MDR1
BCRP = BCRP (Homo sapiens (Human), UniProt Q9UNQ0); experiment: BCRP transfected MDCKII canine Mdr1 knockout permeability/efflux, Assay 9; settings: for efflux ratio at 2 h, 1 μM: dog
Protocol: BCRP transfected MDCKII cells (Assay 8) and BCRP transfected MDCKII canine Mdr1 knockout cells (Assay 9) were cultured and plated according to manufacturer's recommendations.
Both positive and negative controls were used to assess functionality of P-gp or BCRP efflux in the assays. Stock solutions for assay controls and the test article were prepared in DMSO for final test concentration of 1 μM. Final organic concentration in the assay was 1%. All dosing solutions contained 10 μM lucifer yellow to monitor MDCKII cell monolayer integrity.
For the apical to basolateral determination (A to B), 75 μL of the test article in transport buffer were added to the apical side of the individual transwells and 250 μL of basolateral media, without compound or lucifer yellow, were added to each well. For the basolateral to apical determination (B to A), 250 μL of test article in transport buffer were added to each well and 75 μL transport buffer, without compound or lucifer yellow, were added to each transwell. All tests were performed in triplicate, and each compound was tested for both apical to basolateral and basolateral to apical transport. The plates were incubated for 2 hours on a Lab-Line Instruments Titer Orbital Shaker (VWR, West Chester, PA) at 50 rpm and 37° C. with 5% CO2. All culture plates were removed from the incubator, 50 μL of media were removed from the apical and basolateral portion of each well, and added to 150 μL of 1 μM labetalol in 2:1 acetonitrile (ACN): H2O, v/v.
The plates were read using a Molecular Devices (Sunnyvale, CA) Gemini Fluorometer to evaluate the lucifer yellow concentrations at excitation/emission wavelengths of 425/535 nm. […] The plates were sealed, and the contents of each well analyzed by LC MS/MS. The compound concentrations were determined from the ratio of the peak areas of the compound to the internal standard (labetalol) in comparison to the dosing solution.
A MDS Sciex API 4000 (Applied Biosystems, Foster City, CA) mass spectrometer was used for detection of the analytes in the ion spray positive mode. Analyte responses were measured by multiple reaction monitoring (“MRM”) of transitions unique to each compound (the protonated precursor ion and selected product ions for each test article and m/z 329 to m/z 162 for labetalol, the internal standard.
The total run time, including re-equilibration, for a single injection was 1.2 minutes. […] The total run time, including re-equilibration, for a single injection was 0.61 minutes.
An efflux ratio is calculated from the mean apical to basolateral (A-B) Papp data and basolateral to apical (B-A) Papp data: Efflux ratio=Papp(B−A)/Papp(A−B)

[3] = Assay 9 Pe Ratio, efflux ratio Papp(B-A)/Papp(A-B), BCRP transfected MDCKII canine Mdr1 knockout

ErbB2 with Exon 20 YVMA insertion (HER2-YVMA), sequence (P04626 other isoform, or with tags, fused parts or gaps ins YVMA behind 775): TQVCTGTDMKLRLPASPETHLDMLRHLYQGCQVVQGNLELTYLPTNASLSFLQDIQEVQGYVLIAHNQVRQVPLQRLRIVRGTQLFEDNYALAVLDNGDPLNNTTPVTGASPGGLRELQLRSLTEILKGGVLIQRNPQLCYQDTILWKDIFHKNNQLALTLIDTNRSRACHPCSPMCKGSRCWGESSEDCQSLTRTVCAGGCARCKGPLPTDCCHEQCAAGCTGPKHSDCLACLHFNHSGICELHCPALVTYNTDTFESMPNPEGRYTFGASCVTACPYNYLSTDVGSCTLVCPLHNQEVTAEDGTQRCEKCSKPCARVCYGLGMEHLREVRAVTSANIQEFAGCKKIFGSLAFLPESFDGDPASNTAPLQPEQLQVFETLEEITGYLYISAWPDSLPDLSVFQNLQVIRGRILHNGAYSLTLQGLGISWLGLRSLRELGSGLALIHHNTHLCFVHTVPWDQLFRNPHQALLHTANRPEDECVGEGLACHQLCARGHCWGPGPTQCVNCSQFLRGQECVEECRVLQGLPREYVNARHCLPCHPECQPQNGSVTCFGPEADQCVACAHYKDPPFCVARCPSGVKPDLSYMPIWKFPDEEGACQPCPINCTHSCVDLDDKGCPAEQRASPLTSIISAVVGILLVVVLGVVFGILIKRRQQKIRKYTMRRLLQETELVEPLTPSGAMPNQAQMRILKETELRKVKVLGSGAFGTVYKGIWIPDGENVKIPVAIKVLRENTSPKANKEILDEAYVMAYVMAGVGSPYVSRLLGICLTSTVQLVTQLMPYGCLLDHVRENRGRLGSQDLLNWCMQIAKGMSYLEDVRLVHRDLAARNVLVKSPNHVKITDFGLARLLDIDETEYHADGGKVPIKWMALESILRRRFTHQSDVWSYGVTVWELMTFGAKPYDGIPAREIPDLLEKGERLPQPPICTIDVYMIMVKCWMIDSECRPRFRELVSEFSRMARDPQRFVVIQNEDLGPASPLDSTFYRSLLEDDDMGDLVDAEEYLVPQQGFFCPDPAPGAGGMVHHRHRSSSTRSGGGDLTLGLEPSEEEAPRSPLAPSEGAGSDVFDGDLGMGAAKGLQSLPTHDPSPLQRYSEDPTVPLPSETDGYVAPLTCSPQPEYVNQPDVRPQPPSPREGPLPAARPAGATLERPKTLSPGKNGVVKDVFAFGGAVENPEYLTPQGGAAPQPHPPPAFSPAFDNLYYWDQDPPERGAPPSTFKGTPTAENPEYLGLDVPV
BCRP, sequence (Q9UNQ0 whole entry): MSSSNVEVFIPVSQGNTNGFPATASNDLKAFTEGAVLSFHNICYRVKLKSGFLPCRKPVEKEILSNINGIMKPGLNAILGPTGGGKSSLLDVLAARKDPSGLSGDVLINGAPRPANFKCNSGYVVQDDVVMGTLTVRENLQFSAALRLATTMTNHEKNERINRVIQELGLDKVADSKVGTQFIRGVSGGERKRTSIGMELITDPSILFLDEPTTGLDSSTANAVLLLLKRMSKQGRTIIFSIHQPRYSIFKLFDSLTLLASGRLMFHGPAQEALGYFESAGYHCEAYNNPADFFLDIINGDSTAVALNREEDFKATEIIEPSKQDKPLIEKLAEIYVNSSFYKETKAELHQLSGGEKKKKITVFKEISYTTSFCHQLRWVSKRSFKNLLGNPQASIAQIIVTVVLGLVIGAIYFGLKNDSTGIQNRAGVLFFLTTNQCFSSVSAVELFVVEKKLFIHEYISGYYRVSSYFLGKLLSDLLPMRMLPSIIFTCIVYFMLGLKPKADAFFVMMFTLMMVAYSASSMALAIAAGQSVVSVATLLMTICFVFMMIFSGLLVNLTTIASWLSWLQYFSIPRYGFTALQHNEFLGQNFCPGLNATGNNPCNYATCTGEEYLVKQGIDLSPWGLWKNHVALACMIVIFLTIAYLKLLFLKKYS
EGFR, sequence (P00533 25-1210): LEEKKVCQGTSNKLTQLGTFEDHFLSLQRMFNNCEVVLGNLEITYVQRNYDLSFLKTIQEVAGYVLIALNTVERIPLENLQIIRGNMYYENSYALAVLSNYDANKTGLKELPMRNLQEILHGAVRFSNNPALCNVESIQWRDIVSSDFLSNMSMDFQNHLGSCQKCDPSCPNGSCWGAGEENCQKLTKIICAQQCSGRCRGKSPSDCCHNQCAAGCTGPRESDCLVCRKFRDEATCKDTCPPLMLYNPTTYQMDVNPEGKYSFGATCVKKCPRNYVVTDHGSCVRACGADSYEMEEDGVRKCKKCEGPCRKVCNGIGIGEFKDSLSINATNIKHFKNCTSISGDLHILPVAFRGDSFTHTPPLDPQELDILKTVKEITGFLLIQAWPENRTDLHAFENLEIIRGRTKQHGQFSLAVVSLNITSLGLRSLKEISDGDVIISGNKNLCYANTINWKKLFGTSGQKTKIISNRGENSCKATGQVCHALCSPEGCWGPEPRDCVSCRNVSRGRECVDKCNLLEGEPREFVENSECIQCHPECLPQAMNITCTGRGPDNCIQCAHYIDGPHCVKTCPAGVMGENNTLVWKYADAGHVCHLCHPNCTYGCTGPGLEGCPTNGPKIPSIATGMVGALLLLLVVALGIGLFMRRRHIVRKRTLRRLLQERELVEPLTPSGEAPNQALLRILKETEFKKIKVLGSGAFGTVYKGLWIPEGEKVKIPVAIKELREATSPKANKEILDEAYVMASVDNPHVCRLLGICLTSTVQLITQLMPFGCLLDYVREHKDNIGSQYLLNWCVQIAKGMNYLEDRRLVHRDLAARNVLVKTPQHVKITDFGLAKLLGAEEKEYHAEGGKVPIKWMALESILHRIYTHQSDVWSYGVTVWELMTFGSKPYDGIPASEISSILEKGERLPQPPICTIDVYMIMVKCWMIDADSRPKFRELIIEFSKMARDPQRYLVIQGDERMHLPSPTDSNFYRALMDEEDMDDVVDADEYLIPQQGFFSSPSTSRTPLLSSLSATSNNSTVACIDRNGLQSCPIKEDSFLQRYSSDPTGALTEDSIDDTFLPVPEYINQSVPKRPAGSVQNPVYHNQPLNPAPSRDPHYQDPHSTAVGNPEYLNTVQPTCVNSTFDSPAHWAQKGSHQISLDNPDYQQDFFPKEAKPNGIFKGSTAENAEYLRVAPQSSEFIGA
EGFR wild type (EGFR WT), sequence (P00533 25-1210): as above

| Compound | IC50 [1] | IC50 (ErbB2 WT) | IC50 (EGFR) | IC50 [2] | IC50 (EGFR wild type (EGFR WT)) | efflux ratio at 2 h, 1 μM (MDR1 (P-gp)) | efflux ratio at 2 h, 1 μM (BCRP; [3]) | Assay 7 Pe Ratio (MDR1 (P-gp); efflux ratio Papp(B-A)/Papp(A-B), MDR1 transfected MDCKII canine Mdr1 knockout) | Assay 9 Pe Ratio (BCRP; efflux ratio Papp(B-A)/Papp(A-B), BCRP transfected MDCKII canine Mdr1 knockout) | efflux ratio at 2 h, 1 μM (BCRP) |
| --- | --- | --- | --- | --- | --- | --- | --- | --- | --- | --- |
| Cc1cc(Nc2ncnc3cnc(N4CC[C@@H](C#N)C4)nc23)ccc1Oc1ccc2c(c1)ncn2C [Example 184, (R)-1-(8-((3-methyl-4-((1-methyl-1H-benzo[d]imidazol-5-yl)oxy)phenyl)amino)pyrimido[5,4-d]pyrimidin-2-yl)pyrrolidine-3-carbonitrile] | 11.7 nM | 38.1 nM | ≥ 10000 nM | 20.2 nM | ≥ 5000 nM | 1.8 | 4.2 | – | – | – |
| Cc1cc(Nc2ncnc3cnc(N4CCC[C@@](C)(O)C4)nc23)ccc1Oc1ccc2c(c1)ncn2C [Example 196, (R)-3-methyl-1-(8-((3-methyl-4-((1-methyl-1H-benzo[d]imidazol-5-yl)oxy)phenyl)amino)pyrimido[5,4-d]pyrimidin-2-yl)piperidin-3-ol] | 8.2 nM | 9.1 nM | 883 nM | 8.7 nM | ≥ 5000 nM | 1.6 | 13.2 | – | – | – |
| FC(F)(F)[C@@H]1CN(c2ncc3ncnc(Nc4ccc(Oc5ccn6ncnc6c5)c(Cl)c4)c3n2)CCN1 [Example 130, (S)—N-(4-([1,2,4]triazolo[1,5-a]pyridin-7-yloxy)-3-chlorophenyl)-6-(3-(trifluoromethyl)piperazin-1-yl)pyrimido[5,4-d]pyrimidin-4-amine] | 41.7 nM | 36.3 nM | 2560 nM | 43.3 nM | ≥ 5000 nM | 1.3 | 1 | – | – | – |
| Cc1cc(Nc2ncnc3cnc(N4C[C@H]5C[C@@H]4C[C@@H]5O)nc23)ccc1Oc1ccc2c(c1)ncn2C [Example 157, (1R,4R,5S)-2-(8-((3-methyl-4-((1-methyl-1H-benzo[d]imidazol-5-yl)oxy)phenyl)amino)pyrimido[5,4-d]pyrimidin-2-yl)-2-azabicyclo[2.2.1]heptan-5-ol] | 33.5 nM | 56.8 nM | ≥ 10000 nM | 27.8 nM | ≥ 5000 nM | – | – | 2.1 | 21.0 | – |
| Cc1cc(Nc2ncnc3cnc(N4C[C@H](O)C(F)(F)C4)nc23)c(F)cc1Oc1ccc2c(c1)ncn2C [Example 202, (S)-4,4-difluoro-1-(8-((2-fluoro-5-methyl-4-((1-methyl-1H-benzo[d]imidazol-5-yl)oxy)phenyl)amino)pyrimido[5,4-d]pyrimidin-2-yl)pyrrolidin-3-ol] | 25.7 nM | 31.1 nM | ≥ 10000 nM | 49.2 nM | ≥ 5000 nM | 1.2 | 6.4 | – | – | – |
| Cc1cc(Nc2ncnc3cnc(N4CC[C@@](C)(O)C4)nc23)ccc1Oc1ccn2ncnc2c1 [Example 110, (R)-1-(8-((4-([1,2,4]triazolo[1,5-a]pyridin-7-yloxy)-3-methylphenyl)amino)pyrimido[5,4-d]pyrimidin-2-yl)-3-methylpyrrolidin-3-ol] | 33.5 nM | 32.8 nM | 3170 nM | 61.7 nM | ≥ 5000 nM | 1.9 | 32.2 | – | – | – |
| Cc1cc(Nc2ncnc3cnc(N4CCC[C@@](C)(O)C4)nc23)c(F)cc1Oc1ccc2c(c1)ncn2C [Example 218, (R)-1-(8-((2-fluoro-5-methyl-4-((1-methyl-1H-benzo[d]imidazol-5-yl)oxy)phenyl)amino)pyrimido[5,4-d]pyrimidin-2-yl)-3-methylpiperidin-3-ol] | 41.6 nM | 40.3 nM | ≥ 10000 nM | 43.8 nM | ≥ 5000 nM | 1.5 | 2.4 | – | – | – |
| Cc1cc(Nc2ncnc3cnc(N4CCN(C5COC5)CC4)nc23)ccc1Oc1ccc2c(c1)ncn2C [Example 159, N-(3-methyl-4-((1-methyl-1H-benzo[d]imidazol-5-yl)oxy)phenyl)-6-(4-(oxetan-3-yl)piperazin-1-yl)pyrimido[5,4-d]pyrimidin-4-amine] | 28.7 nM | 40.7 nM | 7370 nM | 17 nM | ≥ 5000 nM | 2.1 | 9.6 | – | – | – |
| Cc1cc(Nc2ncnc3cnc(N4CC[C@@](C)(O)C4)nc23)c(F)cc1Oc1ccc2c(c1)ncn2C [Example 214, (R)-1-(8-((2-fluoro-5-methyl-4-((1-methyl-1H-benzo[d]imidazol-5-yl)oxy)phenyl)amino)pyrimido[5,4-d]pyrimidin-2-yl)-3-methylpyrrolidin-3-ol] | 15.4 nM | 46.6 nM | ≥ 10000 nM | 28.1 nM | ≥ 5000 nM | 1.5 | 8.8 | – | – | – |
| Cc1c(Oc2ccc3c(c2)ncn3C)ccc(Nc2ncnc3cnc(N(C)[C@H]4C[C@@](C)(O)C4)nc23)c1F [Example 116, (1s,3s)-3-((8-((2-fluoro-3-methyl-4-((1-methyl-1H-benzo[d]imidazol-5-yl)oxy)phenyl)amino)pyrimido[5,4-d]pyrimidin-2-yl)(methyl)amino)-1-methylcyclobutan-1-ol] | 17.3 nM | 14.8 nM | 1170 nM | 27.8 nM | ≥ 5000 nM | 1.3 | 1.8 | – | – | – |
| Cc1cc(Nc2ncnc3cnc(N4CC[C@@H](C(C)(C)O)C4)nc23)ccc1Oc1ccc2c(c1)ncn2C [Example 113, (R)-2-(1-(8-((3-methyl-4-((1-methyl-1H-benzo[d]imidazol-5-yl)oxy)phenyl)amino)pyrimido[5,4-d]pyrimidin-2-yl)pyrrolidin-3-yl)propan-2-ol] | 13.1 nM | 23 nM | 8480 nM | 9.5 nM | ≥ 5000 nM | 0.9 | 11 | – | – | – |
| Cc1cc(Nc2ncnc3cnc(N4CC5CC5(O)C4)nc23)ccc1Oc1ccc2c(c1)ncn2C (stereo not shown) [Example 158, 3-(8-((3-methyl-4-((1-methyl-1H-benzo[d]imidazol-5-yl)oxy)phenyl)amino)pyrimido[5,4-d]pyrimidin-2-yl)-3-azabicyclo[3.1.0]hexan-1-ol] | 29.4 nM | 58.2 nM | ≥ 10000 nM | 9.8 nM | ≥ 5000 nM | 1.9 | 33.8 | – | – | – |
| Cc1cc(Nc2ncnc3cnc(N4CC[C@@]45CCOC5)nc23)ccc1Oc1ccc2c(c1)ncn2C (single isomer, unassigned) [Example 93a] | 17 nM | 16 nM | 1460 nM | 20.6 nM | ≥ 5000 nM | 1.3 | – | – | – | 1.9 |
| Cc1cc(Nc2ncnc3cnc(N4C[C@@H]5COC[C@@H]54)nc23)ccc1Oc1ccc2c(c1)ncn2C [Example 348] | 40.1 nM | 69.1 nM | ≥ 10000 nM | 14.5 nM | ≥ 5000 nM | 1.4 | 5 | – | – | – |
| Cc1cc(Nc2ncnc3cnc(N4CCN[C@H](C(F)(F)F)C4)nc23)ccc1Oc1ccc2c(c1)ncn2C [Example 172, (S)—N-(3-methyl-4-((1-methyl-1H-benzo[d]imidazol-5-yl)oxy)phenyl)-6-(3-(trifluoromethyl)piperazin-1-yl)pyrimido[5,4-d]pyrimidin-4-amine] | 31 nM | 35.2 nM | 8920 nM | 26.2 nM | ≥ 5000 nM | 1.5 | 2 | – | – | – |
| Cc1cc(Nc2ncnc3cnc(N4CC5(C4)CC(O)(C(F)F)C5)nc23)ccc1Oc1ccc2c(c1)ncn2C [Example 210, 6-(difluoromethyl)-2-(8-((3-methyl-4-((1-methyl-1H-benzo[d]imidazol-5-yl)oxy)phenyl)amino)pyrimido[5,4-d]pyrimidin-2-yl)-2-azaspiro[3.3]heptan-6-ol] | 40.5 nM | 30.2 nM | ≥ 10000 nM | 27 nM | ≥ 5000 nM | 1.7 | – | – | – | 36.8 |
